A melting point compilation (Tetko et al.; mined from patent text by program, amines drawn as free bases though some values may be those of a salt)

Compound CC(=O)c1cc2c(s1)C(=O)c1ccsc1C2=O has a melting point of 223 to 225 °C.
For CC1=CC2=C(C)C3(CC3)C(C)(O)C(=O)C2=C1 (stereo not drawn), the melting point was 138 to 140 °C.
With CCOC(=O)NCCOc1cc(Oc2ccc(C(F)(F)F)cc2Cl)ccc1[N+](=O)[O-] the melting point was 70 to 71 °C.
Compound Cc1ccc2c(c1)C(=O)N(C)Cc1c(C#N)ncn1-2 has a melting point of 252 °C.
CC(=O)c1ccc(-c2ccc3c(ccn3Cc3ccccc3)c2)cc1 gave a melting point of 134 to 135 °C.
CCOc1ccc(C[N+](=O)[O-])c(C=CC[N+](=O)[O-])c1OCc1ccccc1 gave a melting point of 89 to 90 °C.
Work on CC(NC(=O)CSC(=O)c1ccccc1)C(=O)NCC(=O)NCC(=O)O (stereo not drawn) yielded a melting point of 167 to 170 °C.
Compound N#Cc1cc(Cl)[nH]c1-c1oc2ccccc2c1Cl has a melting point of 224 to 226 °C.
With COc1cc(C(C)C)ccc1C1COc2c(C)c(C)c(Br)c(C)c21 (stereo not drawn) the melting point was 102 to 103 °C.
For CCCCc1nc2cccc(COC)c2n1Cc1ccc(-c2ccccc2CO)cc1, the melting point was 126 to 127 °C.
With CC(=O)OCc1ncc2n1-c1ccc(Cl)cc1C(c1ccccc1F)=[N+]([O-])C2 the melting point was 203 to 205 °C.
In the case of CC(C)N1C(=O)N(c2ccc(C#N)c(C(F)(F)F)c2)C(=O)C1(CO)CO, the melting point is reported as 172 to 173 °C.
Compound Cc1nc[nH]c1CSCCNC1=NC(=O)C(Cc2ccccc2)N1 (stereo not drawn) has a melting point of 104 to 107 °C.
For Cn1nc(C2(OCC3CCN(C(=O)OC(C)(C)C)CC3)C=CC=CC2)c2ccccc2c1=O (stereo not drawn), the melting point was 167 to 169 °C.
Compound CC(C)(C)OC(=O)N1CCN(C(=O)N2CCOCC2)CC1 has a melting point of 171 to 173 °C.
COC(=O)c1ccc(N2C(=O)C(O)=C(C(=O)c3ccc(C)cc3)C2c2ccc(C(C)(C)C)cc2)nc1 (stereo not drawn) showed a melting point of 287 to 288 °C.
Compound C=CCN(C(C)=O)c1cccc(C(=O)C=CN(C)C)c1 has a melting point of 91 to 94 °C.
Compound O=C1SCC(O)=C1Cc1ccc(OCCc2ccccc2)cc1 has a melting point of 170 to 171 °C.
CC(C)(C)c1ccc(-c2nnc(-c3ccc(C(=O)O)cc3)o2)cc1 gave a melting point of 284 to 286 °C.
COc1ccccc1N1CCN(CCCNc2ncc3cc(-c4c(Cl)cccc4Cl)c(=O)n(C)c3n2)CC1 showed a melting point of 187 to 188 °C.
Compound CCOC(=O)c1oc2ccc(Br)c(OC(C)C)c2c1C has a melting point of 48 to 50 °C.
CC(C)(C)NC(=O)NCC#N showed a melting point of 128 to 132 °C.
Compound CNc1cc(NS(=O)(=O)c2ccc(N)cc2)nc(NC)n1 has a melting point of 303 to 305 °C.
Cc1nc(NC(=O)c2cccc(OC(F)(F)F)c2)sc1C(=O)NCc1ccccc1 gave a melting point of 230 to 232 °C.
Work on CCCN(C1CC(C)(C)Oc2ccc(OCc3ccccc3)cc21)S(=O)(=O)CC (stereo not drawn) yielded a melting point of 102 to 103 °C.
For CCOC(=O)c1ccc2c(c1)C(=CCCI)CN2, the melting point was 81 °C.
Compound C=CCCCCCCCCC(=O)N[C@H]1CCCNC(=O)C1 has a melting point of 83 to 84 °C.
CC(C)(O)c1cccc(S(N)(=O)=O)c1 showed a melting point of 107 to 108 °C.
Work on Cc1cc(C)c(Nc2nc(C)ccc2S(=O)(=O)c2ccc(-c3ccccc3)cc2)c(C)c1 yielded a melting point of 140 to 141 °C.
For CCC(=O)NCCC1CCc2ccc3ncoc3c21 (stereo not drawn), the melting point was 89 to 90 °C.
Compound CS(=O)(=O)Nc1cc2c(cc1Oc1ccc(F)cc1F)C(O)CC2 (stereo not drawn) has a melting point of 119 °C.
COC(=O)CCC(=O)OC(=C1C(=O)N(C(N)=O)c2cc(Cl)c(F)cc21)c1cccs1 showed a melting point of 179 to 183 °C.
In the case of CCOC(=O)C(=CNc1cccc2c1CCC2)C(=O)OCC, the melting point is reported as 25 to 30 °C.
Compound CC1(C(F)(F)F)CC(=O)CC(=O)C1 has a melting point of 150 to 152 °C.
For CNS(=O)(=O)c1cc(C2(O)CCC(=O)N2C)ccc1Cl (stereo not drawn), the melting point was 147 to 150 °C.
For Oc1c(Cl)cc2c(-c3ccccc3F)noc2c1Cl, the melting point was 194 to 196 °C.
Compound COc1cc2nc(-c3ccccc3)nc(N3CCN(C(=O)Nc4ccc([N+](=O)[O-])cc4)CC3)c2cc1OC has a melting point of 156 to 157 °C.
Compound Cc1cc(C(=O)NCO)ncc1C(c1c(F)ccc(F)c1F)S(=O)(=O)CCC(F)(F)F (stereo not drawn) has a melting point of 146 to 148 °C.
Compound NC(=O)N(O)Cc1cccc(OCCc2csc(-c3ccc(C(F)(F)F)cc3)n2)c1 has a melting point of 118 to 120 °C.
With CNC1NC(=O)c2sccc2-n2cccc21 (stereo not drawn) the melting point was 146 °C.
Compound CN(Cc1cc2c3c(c1)c(=O)c(C(=O)NCc1ccc(Cl)cc1)cn3CC(=O)N2C)C[C@@H](O)c1cnccn1 has a melting point of 97 to 98 °C.
Work on Cc1cc(C)cc(C(=O)c2ccc(O)c(CC(=O)O)c2)c1 yielded a melting point of 242 °C.
COc1ccc(-c2nc3c(OC(C)=O)cccc3s2)cc1 gave a melting point of 122 to 124 °C.
CC1Sc2c(C(=O)O)c(=O)c3cc(F)c(N4CCC(O)C4)cc3n21 (stereo not drawn) showed a melting point of 206 to 208 °C.
For CNc1nn2c(N)nnc2c2c1CCCC2, the melting point was 295 to 297 °C.
CC1(c2ccc(Br)cc2)C(=O)Nc2cc(Cl)cc(Cl)c2C1=O (stereo not drawn) showed a melting point of 237 to 238 °C.
In the case of COc1ccc(S(=O)(=O)Oc2ccc(N3CCNC3=O)cc2)cc1, the melting point is reported as 126 to 127 °C.
Work on O=C1C(Cc2ccncc2)c2ccccc2N1N1CCOCC1 (stereo not drawn) yielded a melting point of 108 to 110 °C.
With O=C(CCC(F)(F)F)N[C@H]1CC[C@H](CCN2CCC(c3cccc4c3CCO4)CC2)CC1 the melting point was 200 °C.
In the case of CC(C)(Cc1ccccc1)C(=O)C(Cc1ccccc1)n1cncn1 (stereo not drawn), the melting point is reported as 45 to 50 °C.
For ClC(Cl)=CCOc1cc(Cl)c(OCCCOc2ccc(-c3nn[nH]n3)cc2)c(Cl)c1, the melting point was 159 to 161 °C.
CCCNC(=O)c1cc(-c2ccc(OC)cc2)nn(CC2CC2)c1=O showed a melting point of 101 to 102 °C.
Work on CCCCCCCCCCCN=C=O yielded a melting point of 109 to 110 °C.
With COc1ccc(CCNC(=O)N(C)O)cc1OC the melting point was 103 to 104 °C.
C=CCC(CCC=NO)C1=C(O)CC(c2ccc(N)cc2)CC1=O (stereo not drawn) showed a melting point of 92 °C.
For NS(=O)(=O)c1ccc(NN=C2C(=O)Nc3ccc(C(=O)NCCCn4ccnc4)cc32)cc1, the melting point was greater than 230 °C.
For COc1cc2c(cc1OC)C1(O)c3ccccc3CCN1C2=O (stereo not drawn), the melting point was 220 °C.
CC(CCC(F)(F)C(C)(C)O)C1CCC2C3CC=C4CC(O)CC(O)C4(C)C3CCC12C (stereo not drawn) showed a melting point of 177 to 179 °C.
Compound COC(=O)c1cc(=O)c2cc(OC)c(=O)ccc2n1C has a melting point of 181 to 183 °C.
In the case of CC(C)Cn1c(N(C)C(=O)OC(C)(C)C)c(OCCCC(F)(F)F)c2cc(OCc3ccccc3)ccc2c1=O, the melting point is reported as 117 to 118 °C.
In the case of O=C(O)c1nc2c(=O)[nH]c3cc(C(F)(F)F)ccc3n2c1Cn1cnc(Cl)c1Cl, the melting point is reported as 213 to 215 °C.
With OCc1ccc(Nc2nc(Oc3ccccc3)nc(Oc3ccccc3)n2)cc1 the melting point was 152 to 154 °C.
COc1cc(C2CCN(CC(O)CF)CC2)ccc1Nc1ncc2ccc(-c3ccccc3N(C)S(C)(=O)=O)n2n1 (stereo not drawn) showed a melting point of 82 to 95 °C.
CCNc1ccc(-c2nnsc2-c2ccc(NCC)cc2)cc1 showed a melting point of 96.5 to 98.5 °C.
Work on CC(=O)NCC1CC(c2ccc(N3CCOCC3)c(F)c2)=NO1 (single isomer, unassigned; (-)) yielded a melting point of 179 to 180 °C.
N#Cc1cccc(Oc2ncccc2C(=O)NCc2ccc(-c3cccc(C(=O)O)c3)cc2F)c1 gave a melting point of 200 to 202 °C.
With Cc1ncc(Cn2c(CC3CCN(CCc4c(C)nc5sccn5c4=O)CC3)nc3ccccc32)o1 the melting point was 174 °C.
In the case of CC(C)C(NC(=O)OCc1ccccc1)(C(=O)OCc1ccccc1)C1CO1 (stereo not drawn), the melting point is reported as 74 to 76 °C.
With O=C(Nc1ccc(C(F)(F)F)cc1)C(Cl)=NNc1ccc(Cl)cc1 the melting point was 167 to 168 °C.
Cc1ccc(-n2c(-c3cc(-c4ccc(S(C)(=O)=O)cc4)c(N4CCOCC4)s3)nc3ccccc3c2=O)cc1 showed a melting point of 265 to 268 °C.
Cc1c(C(=O)NC2C3(C)CCC(C3)C2(C)C)c2ccc(Cl)c(Cl)c2n1CCCNS(C)(=O)=O (stereo not drawn) showed a melting point of 150 to 154 °C.
For CC(C)(C)OC(=O)CN(C(=O)CNC(=O)c1ccc(Cl)c(Cl)c1)c1ccccc1, the melting point was 95 °C.
Work on CC(c1ccc(F)cc1)N1CCN(c2cc(Oc3cccc4ccncc34)ncn2)CC1 (stereo not drawn) yielded a melting point of 114 °C.
O=c1c(-c2ccccc2)c[nH]n1-c1ccccn1 showed a melting point of 132 to 133 °C.
O=C1C(O)=C(C2CCC(c3ccc(Cl)cc3)CC2)C(=O)c2ccccc21 (stereo not drawn) gave a melting point of 216 to 219 °C.
Work on O=c1ccoc2cc(OS(=O)(=O)C(F)(F)F)ccc12 yielded a melting point of 43 to 44 °C.
Compound N#Cc1cc(F)cc(-c2ccc3c(c2)C2(CCCC2)C(=O)N3)c1 has a melting point of 235 to 237 °C.
CCCn1c(COCC)nc2c(N)nc3cc(OCC(=O)N4CCOCC4)ccc3c21 showed a melting point of 213 °C.
Work on COc1ccccc1Sc1c(Cl)nc(C)nc1Cl yielded a melting point of 140 °C.
In the case of CCOP(=O)(CCNCc1c(N)c(=O)c1=O)OCC, the melting point is reported as 130 to 132 °C.
Work on COc1ccc(-c2nc3n(c2-c2ccncc2)CCC3)cc1 yielded a melting point of 158 °C.
With COC(=O)c1nc(Cl)c(Cl)c(Cl)c1I the melting point was 61 to 62 °C.
Work on CC(C)(C)OC(=O)N1CCc2cc(-c3ccc(Cl)cc3)ccc2C1 yielded a melting point of 88.5 to 90.5 °C.
O=C(O)COc1cccc2c1CCc1sc(SC(Cc3ccccc3)c3ccccc3)nc1-2 (stereo not drawn) gave a melting point of 201 to 204 °C.
CCOP(=O)(Cc1ccc(C(N)=O)cc1)OCC gave a melting point of 177 to 178 °C.
In the case of CC(=NO)c1ccc(N2CCN(C(=O)CCCCCCC(=O)NO)CC2)cc1, the melting point is reported as 147 to 148 °C.
Work on Nc1ncc(-c2ccc3c(c2)CCC(NCC(F)(F)F)CC3)c(N)n1 (stereo not drawn) yielded a melting point of 154 to 156 °C.
In the case of C(=C\c1cc(/C=C/c2ccc3cc[nH]c3c2)[nH]n1)/c1ccc2cc[nH]c2c1, the melting point is reported as 289 to 291 °C.
NS(=O)(=O)c1sccc1C(F)=C(F)C(F)(F)F gave a melting point of 108 to 111 °C.
Cc1ccc(Cn2c(=O)cc(C(C)C(=O)Oc3ccccc3)c3cc(C)ccc32)cc1 (stereo not drawn) gave a melting point of 111 to 113 °C.
CNCC1=C(C#N)C(c2cccc(C#N)c2Br)c2c[nH]nc2N1 (stereo not drawn) gave a melting point of 258 °C.
With C#CC(=O)NC[C@@H]1CN2C(=O)C[C@H]2O1 (racemic) the melting point was 76.5 to 78 °C.
Compound O=C(NCCc1cccc2ccc(OC(c3ccccc3)c3ccccc3)cc12)C1CC1 has a melting point of 109 to 111 °C.
With COC(=O)c1c(Cl)cc(Cl)cc1NC(=O)CSc1ccc(NC(=O)Cc2ccccc2)cc1 the melting point was 156 to 158 °C.
CCCCC[C@H]1CC[C@H](c2ncc(O)cn2)CC1 showed a melting point of 190 to 191 °C.
O=P1(c2ccccc2)OCC2(CO1)COP(=O)(c1ccccc1)OC2 (stereo not drawn) gave a melting point of 264 to 265 °C.
Work on O=c1cccccc1N1CCN(c2cccccc2=O)CC1 yielded a melting point of 184 to 186 °C.
Work on CCN(CC)CCOc1ccc2cc3ccc(OCCN(CC)CC)c(CN4C(=O)c5ccccc5C4=O)c3nc2c1CN1C(=O)c2ccccc2C1=O yielded a melting point of 242 to 244 °C.
